Source: patent US7304186B2, “Synthetic method and novel chemical compounds” (Charterhouse Therapeutics Ltd., priority 2002, dated 2007)
Read-outs that look alike come from different tables or passages of the source.

Legend:
[1] = system: parainfluenza Sendai virus (SV); test: Sendai virus replication in 37RC cells, virus yield by HAU titration; type: cell-based; details: for IC50: read-out: ID50 (50% inhibitory dose/concentration)
Procedure: (§1) Monkey kidney 37RC cells were grown at 37° C. under the conditions described above for human lymphoblastoid Jurkat T cells. The parainfluenza Sendai virus (SV) was grown in the allantoic cavity of 10 day-old embryonated eggs. Viral titre was expressed in haemagglutinating units (HAU) per ml; […]. Virus yield at 24 hours after infection was determined in the supernatant of infected cells by HAU titration.
(§2) The ID50 (the 50% inhibitory dose/concentration) value at 24 hours and the TD100 (the dose or concentration at which a tested compound is 100% toxic to uninfected cells, determined visually by microscopy) for both (−)-Δ^12,14-15-deoxy-PG-J2 and for compound CTC-150 were measured and the following results were obtained.

NF-κB = test: EMSA of NF-κB DNA-binding activity in TPA-stimulated Jurkat T cells; type: cell-based, Human; details: for NF-κB inhibition (in words): TPA-stimulated, EMSA
Procedure: (§3) Human lymphoblastoid Jurkat T cells were grown at 37° C. in a 5% CO2 atmosphere in RPM1 1640 medium (GIBCO BRL, Gaithersburg, Md., United States of America) supplemented with 10% fetal calf serum (FCS, Hyclone Europe Ltd, United Kingdom), 2 mM glutamine and antibiotics according to the method described by A. Rossi et al.^48 The test compound was stored as a 100% ethanolic stock solution (100 mM) or in dimethylsulfoxide (100 mM) and diluted to the appropriate concentration in culture medium at the time of use. Cells were treated with different concentrations of test compound for 1 hour and then stimulated with 12-O-tetradecanoylphorbol-13-acetate (TPA, 25 ng/ml), which is a strong inducer of NF-κB. Control cells received an equal amount of control diluent. After 3 hours, whole-cell extracts were prepared and subjected to analysis of DNA-binding activity by EMSA (Electrophoretic Mobility Shift Assay) for detection of HSF or NF-κB activation, according to the method described by A. Rossi et al.^48
(§4) Specificity of protein-DNA complexes was verified by immunoreactivity with polyclonal antibodies specific for p65 (Rel A) or for HSF-1, for NF-κB and HSF respectively. Quantitative evaluation of NF-κB- and HSF-DNA complex formation was determined by Molecular Dynamics PhosphorImager (MDP) analysis and was expressed in arbitrary units, as described by A. Rossi et al.^49 The results for (−)-Δ^12,14-15-deoxy-PG-J2 are shown in FIG. 1.

Monkey kidney 37RC cells = type: cell-based
Procedure: as §1, §2

HSF = test: EMSA of HSF DNA-binding activity in TPA-stimulated Jurkat T cells; type: cell-based, Human; details: 1 hour pre-treatment, TPA 25 ng/ml, extracts after 3 hours
Procedure: as §3, with “After 3 hours, whole-cell extracts were prepared and subjected to analysis of DNA-binding activity by EMSA (Electrophoretic Mobility Shift Assay) for detection of HSF or NF-κB activation, according to the method described by A. Rossi et al.^48” left out
as §4

For `CCCCC/C=C/C=C1/C(=O)C=CC1C/C=C\CCCC(=O)O` (stereo not drawn) [(−)-Δ^12,14-15-deoxy-PG-J2, reference compound], the “inhibition of Sendai virus replication (in words)” value ([1]; 37RC cells, virus yield at 24 hours) was “potent inhibitor of Sendai virus replication”, the IC50 ([1]; virus yield at 24 hours after infection, 37RC cells, 5 HAU/10^5 cells) was 3000 nM and the “NF-κB inhibition (in words)” value (NF-κB) was “potent inhibitor of NF-κB”. The “TD100 (concentration at which compound is 100% toxic to uninfected cells)” value (Monkey kidney 37RC cells; uninfected 37RC cells, visually by microscopy) was 50 µM.

In the case of `CC1C=CC(=O)/C1=C/c1ccccc1` (stereo not shown) [CTC-150, 4-methyl-5-[1-phenyl-meth-(E)-ylidene]-cyclopent-2-enone], the IC50 ([1]; Respirovirus muris, 24 h) is reported as 700 nM, the “antiviral activity relative to (−)-Δ^12,14-15-deoxy-PG-J2 (times more active)” value ([1]; ratio of ID50 values, Sendai virus in 37RC cells) is reported as “over 4” and the IC50 (NF-κB; Homo sapiens, 1 hour pre-treatment, TPA 25 ng/ml, extracts after 3 hours, read-out: concentration required to give an NF-κB inhibition to 50% of its original level (IC50)) is reported as 7000 nM. For the same molecule, the “NF-κB inhibition (in words)” value (NF-κB) was “potent inhibitor of NF-κB”, the “TD100 (concentration at which compound is 100% toxic to uninfected cells)” value (Monkey kidney 37RC cells; monkey) was >50 µM and the “concentration required to give an HSF activation to 200% of its original level” value (HSF) was 0.02 µM.
